Measured values as given in patent publication US20100298343A1, “5-LIPOXYGENASE-ACTIVATING PROTEIN (FLAP) INHIBITORS” (priority 2007, published 2010).

The molecules below were run against T1, 5-lipoxygenase-activating protein (FLAP) (Homo sapiens, UniProt P20292) (assay: FLAP Binding Assay). Conditions: human polymorphonuclear cell 100,000 g membranes; 3H MK886 or other radioligand; 30 minutes at room temperature.
T1 construct: tissue Biological Speciality Corporation; host or cells: human polymorphonuclear cells (100,000 g membranes)
T1 sequence (P20292 1-161): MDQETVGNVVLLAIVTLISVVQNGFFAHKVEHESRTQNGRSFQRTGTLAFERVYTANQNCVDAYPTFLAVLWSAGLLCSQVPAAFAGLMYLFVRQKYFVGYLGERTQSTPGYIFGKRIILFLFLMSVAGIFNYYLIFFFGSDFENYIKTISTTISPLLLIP
Description: A non-limiting example of such a FLAP binding assay is as follows:
Packed human polymorphonuclear cell pellets (1.8×10^9 cells) (Biological Speciality Corporation) were resuspended, lysed and 100,000 g membranes prepared as described (Charleson et al. Mol. Pharmacol, 41, 873-879, 1992). 100,000×g pelleted membranes were resuspended in Tris-Tween assay buffer (100 mM Tris HCl pH 7.4, 140 mM NaCl, 2 mM EDTA, 0.5 mM DTT, 5% glycerol, 0.05% Tween 20) to yield a protein concentration of 50-100 μg/mL. 10 μL membrane suspension was added to 96 well Millipore plate, 78 μL Tris-Tween buffer, 10 μL ^3H MK886 or ^3H 3-[5-(pyrid-2-ylmethoxy)-3-tert-butylthio-1-benzyl-indol-2-yl]-2,2-dimethylpropionic acid (or ^125I MK591 derivative Eggler et al, J. Labelled Compounds and Radiopharmaceuticals, 1994, vXXXIV, 1147)) to 30,000 cpm, 2 μL, inhibitor and incubated for 30 minutes at room temperature. 100 μL ice-cold washed buffer was added to the incubation mixture. Plates were then filtered and washed 3× with 200 μL ice cold Tris-Tween buffer, scintillation bottoms sealed, 100 μL scintillant added, shaken for 15 minutes then counted in a TopCount. Specific binding was determined as defined as total radioactive binding minus non-specific binding in the presence of 10 μM MK886. IC50s were determined using Graphpad prism analysis of drug titration curves.

IC50 [µM]	SMILES
10 to 100	CSc1c(C(Cc2ccccc2)C(=O)O)n(C)c2ccc(OCc3ccccn3)cc12 (stereo not shown) [Example 9, 2-[1-Methyl-3-methylsulfanyl-5-(pyridin-2-ylmethoxy)-1H-indol-2-yl]-3-phenyl-propionic acid]
10 to 100	Cn1c(C(Cc2ccccc2)C(=O)O)c(S(C)(=O)=O)c2cc(OCc3ccccn3)ccc21 (stereo not shown) [Example 10, 2-[3-Methanesulfonyl-1-methyl-5-(pyridin-2-ylmethoxy)-1H-indol-2-yl]-3-phenyl-propionic acid]
10 to 100	CCS(=O)(=O)c1c(C(Cc2ccccc2)C(=O)O)n(C)c2ccc(OCc3ccccn3)cc12 (stereo not shown) [Example 11, 2-[3-Ethanesulfonyl-1-methyl-5-(pyridin-2-ylmethoxy)-1H-indol-2-yl]-3-phenyl-propionic acid]
100 to 250	Cc1cnc(COc2ccc3c(c2)c(SC(C)(C)C)c(C(Cc2cnc(C)cn2)C(=O)O)n3C)cn1 (stereo not shown) [Example 37, 2-[3-tert-Butylsulfanyl-1-methyl-5-(5-methyl-pyrazin-2-ylmethoxy)-1H-indol-2-yl]-3-(5-methyl-pyrazin-2-yl)-propionic acid]
